Molecules are shown by their SMILES. Marks after values point to notes of the source that are not given here.

The test system of this series is IKr ion currents. Put plainly: First validation: ECG repolarization changes (QTc, ERDc, LRDc) on sotalol versus baseline. It counts as in vivo. The following applies: median (standard deviation); for ERDc 50%, Δ on drug - baseline / LRDc 50%, Δ on drug - baseline: individual correction formula. An excerpt:
FIG. 2 illustrates one embodiment of a such a method for assessing repolarization abnormalities. At least two repolarization signals are identified 30 from a set of ECG signals. The ECG signals may be obtained from a variety of ECG capture devices as discussed above. The ECG signals may be obtained in “real-time” from a subject, or the ECG signals may be obtained from a database (which should be understood to include memory devices) storing previously obtained ECG signals.
Once the at least two repolarization signals are identified 30, principal component analysis 32 can be done on the repolarization signals to extract eigenvectors ev1 and ev2. Principal component analysis (PCA) is a way of identifying patterns in data, and is especially useful in dealing with multi-dimensional data, such as multiple repolarization signals from multiple ECG leads. PCA analysis is a mathematical technique which those skilled in the art will be familiar with, and results in a matrix of eigenvectors. As a summary of the PCA analysis, first, the mean is subtracted from each of the data dimensions. This produces a data set whose mean is zero. Next, a covariance matrix is calculated for the data. If the data has n-dimensions, then the covariance matrix will be a square n-by-n matrix. Mathematical constructs called eigenvectors and eigenvalues may be calculated for a square matrix, and so next, a set of eigenvectors and eigenvalues are calculated for the covariance matrix. For the n-by-n covariance matrix, there will be n eigenvectors. The eigenvectors are orthogonal to each other, and each has a corresponding eigenvalue. The eigenvectors can be thought of as a representation of the multi-dimension data. The eigenvector with the highest eigenvalue is the principal component of the data set. The eigenvectors may be sorted from highest to lowest, and the eigenvectors with the two highest eigenvalues may be referred to as ev1 and ev2 respectively.
Once the PCA analysis 32 has been completed, a maximum vector MV may be determined 34 based on a transformed ECG signal in a preferential plane defined by ev1 and ev2. Mathematically, MV is detected at time t=TMV, where equation 1 is fulfilled: MV=max ? {right arrow over (VECG)}(t)−{right arrow over (VECG)}(TQ) ? , Equation 1)
Referring again to FIG. 2, once the maximum vector MV has been determined, a repolarization duration which is based on the maximum vector MV is determined 36. The repolarization duration may be determined 36 by taking an arbitrary threshold percentage of the magnitude of MV and projecting the threshold magnitude relative to an endpoint of MV to determine a beginning point and an ending point on the transformed ECG signal in the plane defined by ev1 and ev2. An example of this process can be seen graphically in FIG. 3. In the example of FIG. 3, the arbitrary threshold percentage of the magnitude of MV is 30%. This threshold magnitude of 30% MV (or 30% Vmax) is projected in a circle or arc 38 around the endpoint of MV, which is labeled Vmax. Where the projected threshold 38 crosses 40 the transformed ECG signal 42 (or T-loop) on a first side of the endpoint of MV, we can define a beginning point. Since the data points are samples in time, the beginning point may be designated as the closest true data point 44 to the crossing point 40. Alternatively, the beginning point may be an interpolated data point based on the two closest data points 44 and 46. Where the projected threshold 38 crosses 48 the transformed ECG signal 42 (or T-loop) on a second side of the endpoint of MV, we can define an ending point. Since the data points are samples in time, the ending point may be designated as the closest true data point 50 to the crossing point 48. Alternatively, the ending point may be an interpolated data point based on the two closest data points 50 and 52. […]

For `CC(C)NCC(O)c1ccc(NS(C)(=O)=O)cc1` (stereo not drawn) [sotalol], the “QTc L II, Δ on drug - baseline” value by setting is: (42′-48′ after dosing) 4.0(16) ms; (48′-54′ after dosing) 4.1(16) ms; (54′-1 h after dosing) 4.3(16)* ms; (1 h-1 h 6′ after dosing) 13(17)* ms. The “ERDc 50%, Δ on drug - baseline” value runs as follows: (42′-48′ after dosing) 5.1(14)* ms; (48′-54′ after dosing) 4.9(14)* ms; (54′-1 h after dosing) 4.4(12) ms; (1 h-1 h 6′ after dosing) 9.5(16)** ms. The “LRDc 50%, Δ on drug - baseline” value is listed as 1.1(6.2)* ms (42′-48′ after dosing), 0.6(5.2)* ms (48′-54′ after dosing), 0.3(6.5) ms (54′-1 h after dosing) and 4.0(5.9)** ms (1 h-1 h 6′ after dosing).

Values taken from patent US7912535B2, “Method and system for assessing repolarization abnormalities” (University of Rochester, priority 2006, dated 2011).
